For orientation: Ki means the equilibrium dissociation constant of an inhibitor or competing ligand from its target. Usually IC50 stands for the concentration that gives 50% inhibition. A lower IC50 goes with greater potency.

One data set concerns DU-145 prostate tumor. The experiment in a line: tumor growth in scid mouse human prostate tumor model. Format: in vivo, scid mice.
A further data set has as its target hPin1 (Homo sapiens, UniProt Q13526). The experiment in a line: protease-coupled PPIase assay, hPin1. Format: biochemical. As to the method:
PPIase activity measurements were performed by the protease-coupled PPIase assay developed by Fischer et al. (1984). For hPin1 activity measurements, bovine trypsin (final concentration 0.21 mg/mL, Sigma) was used as an isomer-specific protease and Ac-Ala-Ala-Ser(P)-Pro-Arg-pNA (Jerini, Germany) as a substrate. PPIase activity of hFKBP12 (Sigma) and hCyp18 (Sigma) was determined with the peptide substrate Suc-Ala-Phe-Pro-Phe-pNA (Bachem) and the protease α-chymotrypsin (final concentration 0.41 mg/mL, Sigma). The test was performed by observing the released 4-nitroanilide at 390 nm with a Hewlett-Packard 8453 UV-vis spectrophotometer at 10° C. The total reaction volume was adjusted to 1.23 mL by mixing appropriate volumes of 35 mM HEPES (pH 7.8) with enzyme and effector solutions. Fredericamycin A (BioLeads, Germany) was freshly diluted from a 1 mg/mL stock solution in DMSO. If not otherwise indicated, fredericamycin A (0-6 μM) was pre-incubated with the enzyme for 5 min (10° C.). Prior to the start of reaction by addition of the respective protease, 2 μL of the peptide substrate stock solution (10 mg/mL in DMSO) were added. The amount of organic solvent was kept constant within each experiment (<0.1%). The pseudo-first-order rate constant kobs for cis/trans isomerization in the presence of PPlase and the first-order rate constant k0 of the unkatalyzed cis/trans isomerization were calculated using the Kinetics Software of Hewlett-Packard as well as SigmaPlot2000 for Windows 6.0 (SPSS). The Ki value for inhibition of hPin1 PPIase activity by fredericamycin A at constant concentrations of substrate ([S0]<<KM) was calculated by fitting the data according to the equation for a competitive “tight-binding” inhibitor using SigmaPlot2000.
FIG. 1: Ki value for hPin1 PPlase activity inhibition by fredericamycin A. PPIase activity measurements were performed as described in Materials and Methods. 6.0 nM of Pin1 were pre-incubated with 0-4.8 μM fredericamycin A in 35 mM HEPES (pH 7.8) at […] for 5 min. Ac-Ala-Ala-Ser(P)-Pro-Arg-pNA (21.9 μM) was used as a substrate. Reactions were started by addition of trypsin.
FIG. 2: Time dependency of Pin1 PPIase activity inhibition by fredericamycin A. PPIase activity measurements were performed as described in Materials and Methods. 6.0 nM hPin1 was incubated for 0, 5, 10, 15, 20, 25 and 30 min with 0 (●) and 1 μM (♦) fredericamycin, respectively.
FIG. 3: Reversibility of the interaction between hPin1 and fredericamycin A. 209 nM of hPin1 were incubated with 0 (▪) and 0.16 (□) […] fredericamycin A and the remaining PPIase activity of hPin1 was measured before and after micro-separation through a semipermeable membrane using the protease-coupled PPlase assay according to Materials and Methods.

Another data set has as its target T1, hCyp18 (Homo sapiens, UniProt P62937).
T1 construct: purchased Sigma
The experiment in a line: protease-coupled PPIase assay, hCyp18. Format: biochemical. As for the experimental part: (§1) PPIase activity measurements were performed by the protease-coupled PPIase assay developed by Fischer et al. (1984). For hPin1 activity measurements, bovine trypsin (final concentration 0.21 mg/mL, Sigma) was used as an isomer-specific protease and Ac-Ala-Ala-Ser(P)-Pro-Arg-pNA (Jerini, Germany) as a substrate. PPIase activity of hFKBP12 (Sigma) and hCyp18 (Sigma) was determined with the peptide substrate Suc-Ala-Phe-Pro-Phe-pNA (Bachem) and the protease α-chymotrypsin (final concentration 0.41 mg/mL, Sigma). The test was performed by observing the released 4-nitroanilide at 390 nm with a Hewlett-Packard 8453 UV-vis spectrophotometer at 10° C. The total reaction volume was adjusted to 1.23 mL by mixing appropriate volumes of 35 mM HEPES (pH 7.8) with enzyme and effector solutions. […] The pseudo-first-order rate constant kobs for cis/trans isomerization in the presence of PPlase and the first-order rate constant k0 of the unkatalyzed cis/trans isomerization were calculated using the Kinetics Software of Hewlett-Packard as well as SigmaPlot2000 for Windows 6.0 (SPSS). The Ki value for inhibition of hPin1 PPIase activity by fredericamycin A at constant concentrations of substrate ([S0]<<KM) was calculated by fitting the data according to the equation for a competitive “tight-binding” inhibitor using SigmaPlot2000.

The target in another data set is T2, hFKBP12 (Homo sapiens, UniProt P62942).
T2 construct: purchased Sigma
T2 sequence (P62942 whole entry): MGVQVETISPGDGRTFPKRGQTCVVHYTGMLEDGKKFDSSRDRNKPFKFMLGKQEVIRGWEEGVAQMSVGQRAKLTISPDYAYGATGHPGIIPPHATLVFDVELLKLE
The experiment in a line: protease-coupled PPIase assay, hFKBP12. The class given is biochemical. As to the method: as §1

In the next data set the test system is glioblastoma cells. As to conditions: Misra et al. 1982; cited from earlier work.
[1] abbreviates: Day 7 (before dosing), group 0.34 mg/kg ip Days 16-20.
[2] abbreviates: Day 12 (before dosing), group 0.34 mg/kg ip Days 16-20.
Setting [3] is: Day 14 (before dosing), group 0.34 mg/kg ip Days 16-20.
[4] abbreviates: Day 18, 0.34 mg/kg ip Days 16-20.
The mark [5] stands for this setting: Day 21, 0.34 mg/kg ip Days 16-20.
The mark [6] stands for this setting: Day 25, 0.34 mg/kg ip Days 16-20.
Where [7] appears, read: Day 28, 0.34 mg/kg ip Days 16-20.
Where [8] appears, read: Day 32, 0.34 mg/kg ip Days 16-20.

Each structure is given as a SMILES string. Read-outs that look alike come from different tables or passages of the source.

Chain of hPin1 (Q13526 whole entry): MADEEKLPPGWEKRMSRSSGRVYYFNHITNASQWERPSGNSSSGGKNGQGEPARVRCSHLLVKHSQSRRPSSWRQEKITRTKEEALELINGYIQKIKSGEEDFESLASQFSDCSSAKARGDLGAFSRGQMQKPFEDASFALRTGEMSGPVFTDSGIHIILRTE
T1 sequence (P62937 whole entry): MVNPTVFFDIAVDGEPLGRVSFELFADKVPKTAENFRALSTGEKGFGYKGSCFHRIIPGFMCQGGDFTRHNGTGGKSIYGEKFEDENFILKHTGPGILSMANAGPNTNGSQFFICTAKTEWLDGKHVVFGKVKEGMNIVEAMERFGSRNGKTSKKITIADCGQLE

In the case of `O=C1c2c(O)ccc(O)c2C(=O)c2c(NCCNCCO)ccc(NCCNCCO)c21` [Mitox, reference compound], the “Tumor Volume” value was 0.02 cm^3 in the data set on DU-145 prostate tumor (setting [1]); 0.05 cm^3 in the data set with DU-145 prostate tumor (setting [2]); 0.09 cm^3 in the data set with DU-145 prostate tumor (setting [3]); 0.19 cm^3 with DU-145 prostate tumor (setting [4]); 0.22 cm^3 with DU-145 prostate tumor (setting [5]); 0.37 cm^3 in the data set on DU-145 prostate tumor (setting [6]). Also, the “Tumor Volume” value in the data set with DU-145 prostate tumor (setting [7]) is 0.53 cm^3; in the data set on DU-145 prostate tumor (setting [8]), 0.72 cm^3. Besides, the “mice that died after 32 days” value (0.34 mg/kg ip Days 16-20, ten mice per group) is on record as “None”. For the same molecule, the “Mean Mouse Weight” value was 27.98 g under setting [1]; 28.32 g under setting [2]; 27.39 g under setting [4]; 27.38 g under setting [6]; 28.04 g under setting [8]; 26.36 g (Day −6 (before dosing), group 0.34 mg/kg ip Days 16-20).

As to `C/C=C/C=C/c1cc2cc3c(c(O)c2c(=O)[nH]1)C1(CC3)C(=O)c2c(O)c3c(c(O)c2C1=O)C(=O)C(OC)=CC3=O` (stereo not drawn) [fredericamycin A], the Ki on hPin1 (6.0 nM Pin1, 5 min pre-incubation, 35 mM HEPES pH 7.8, substrate Ac-Ala-Ala-Ser(P)-Pro-Arg-pNA, competitive tight-binding fit, read-out: Ki value for inhibition of the PPIase activity of hPin1) was found to be 820 ± 608 nM. The “time dependency of inhibition of hPin1 PPIase activity” value at hPin1 (6.0 nM hPin1, 1 μM inhibitor, 0-30 min incubation) is “no time dependency of inhibition within 30 min”. Also, the “remaining hPin1 PPIase activity” value on hPin1 (209 nM hPin1, 0.16 mM inhibitor, before micro-concentration) is recorded as 23%. Further, on hPin1 (209 nM hPin1, 0.16 mM inhibitor, buffer replaced 3 times, compared to inhibitor-free enzyme control), the “hPin1 reactivation after micro-concentration through semi-permeable membrane (reversibility)” value was 97.5%. Also, at hPin1 (hPin1 versus hCyp18 and hFKBP12), the “preference for the parvulin hPin1 over the other tested PPIases” value is on record as 6- to 7 fold. In addition, the values for the IC50 on hPin1 (protease-coupled PPIase assay), against hCyp18 and on hFKBP12 were 890 ± 50 nM, 5100 ± 2000 nM and 6200 ± 1700 nM, respectively. The “Tumor Volume” value in the data set with DU-145 prostate tumor (setting [1]) is given as 0.02 cm^3; with DU-145 prostate tumor (Day 7 (before dosing), group 0.67 mg/kg ip Days 16-20), 0.04 cm^3; in the data set with DU-145 prostate tumor (setting [2]) it was 0.05 cm^3; with DU-145 prostate tumor (Day 12 (before dosing), group 0.67 mg/kg ip Days 16-20), 0.04 cm^3; in the data set with DU-145 prostate tumor (setting [3]), 0.05 cm^3; in the data set with DU-145 prostate tumor (Day 14 (before dosing), group 0.67 mg/kg ip Days 16-20), 0.07 cm^3. In addition, the “Tumor Volume” value in the data set on DU-145 prostate tumor (setting [4]) stood at 0.03 cm^3; with DU-145 prostate tumor (Day 18, 0.67 mg/kg ip Days 16-20), 0.05 cm^3; in the data set on DU-145 prostate tumor (setting [5]), 0.11 cm^3; with DU-145 prostate tumor (setting [6]), 0.11 cm^3; with DU-145 prostate tumor (setting [7]), 0.22 cm^3; with DU-145 prostate tumor (setting [8]) it was 0.35 cm^3. In addition, the “reduction of mean tumor volume as compared to the DMSO or Mitox controls” value in the data set on DU-145 prostate tumor (FIG. 4, DU-145 tumor bearing scid mice, ip Days 16-20) worked out at 50%. For the same molecule, under “0.67 mg/kg ip from Day 16, ten mice per group”, the death of mice result is “All of the mice receiving 0.67 mg/kg of Fred A died by about Day 17”. Besides, for the setting “mouse, in vivo”, the “number of mice that lived until Day 32” value is listed as 2. In addition, in the data set with glioblastoma cells, the “anti-tumor activity against glioblastoma cells” value is reported as “comparable to 1,3-bis(2-chloroethyl)-1-nitrosourea (BCNU)”.
